Data reported in patent publication US11390617B2, “Methods of treating non-Hodgkin lymphoma using 2-(2,6-dioxopiperidin-3-yl)-4-((2-fluoro-4-((3-morpholinoazetidin-1-yl)methyl)benzyl)amino)isoindoline-1,3-dione” (Celgene Corporation, priority 2019, dated 2022).

Legend:
Test in all cases: NHL cell line viability/apoptosis 384-well flow cytometry assay
Type in all cases: cell-based
RL = RL (FL), 120 hours
How it was run: (§1)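 Read-out is flow cytometry with Annexin V and the impermeant DNA dye DRAQ7 after 120 hours of compound exposure over 0.00015 to 10 μM. Live-cell counts relative to DMSO give IC50 and Emax; percent apoptosis relative to DMSO gives EC50 and Ymax, with AUC for both.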

OCI-LY7 = OCI-LY7 (DLBCL), 120 hours
How it was run: as §1

DOHH2 = DOHH2 (FL), 120 hours
How it was run: as §1

OCI-LY19 = OCI-LY19 (DLBCL), 120 hours
How it was run: as §1

NU-DUL-1 = NU-DUL-1 (DLBCL), 120 hours
How it was run: as §1

STR428 = STR428 (DLBCL), 120 hours
How it was run: as §1

HT = HT (DLBCL), 120 hours
How it was run: as §1

KARPAS-1106P = KARPAS-1106P (DLBCL), 120 hours
How it was run: as §1

Pfeiffer = Pfeiffer (DLBCL), 120 hours
How it was run: as §1

[1] = Homo sapiens, read-out: IC50 (% Viable Cells)

O=C1CC[C@H](N2C(=O)c3cccc(NCc4ccc(CN5CC(N6CCOCC6)C5)cc4F)c3C2=O)C(=O)N1 [Compound 1, (S)-2-(2,6-dioxopiperidin-3-yl)-4-((2-fluoro-4-((3-morpholinoazetidin-1-yl)methyl)benzyl)amino)isoindoline-1,3-dione]
EC50 (RL; Homo sapiens): 157 nM
IC50 (RL; [1]): 8.76 nM
AUC (% Viable Cells) (RL): 234.8
AUC (Apoptosis) (RL): 115.9
Emax (% Viable Cells) (RL): 21.55%
Ymax (Apoptosis) (RL): 13.93%
EC50 (OCI-LY7; Homo sapiens): 16.3 nM
IC50 (OCI-LY7; [1]): 6.48 nM
AUC (% Viable Cells) (OCI-LY7): 48.18
AUC (Apoptosis) (OCI-LY7): 682.7
Emax (% Viable Cells) (OCI-LY7): 4.191%
Ymax (Apoptosis) (OCI-LY7): 71.18%
AUC (% Viable Cells) (DOHH2): 6.902
AUC (Apoptosis) (DOHH2): 923.9
Emax (% Viable Cells) (DOHH2): 0.2066%
Ymax (Apoptosis) (DOHH2): 95.1%
EC50 (DOHH2; Homo sapiens, DOHH-2): 17.5 nM
IC50 (DOHH2; Homo sapiens, DOHH-2, read-out: IC50 (% Viable Cells)): 2.8 nM
EC50 (OCI-LY19; Homo sapiens): 283 nM
IC50 (OCI-LY19; [1]): 29.4 nM
AUC (% Viable Cells) (OCI-LY19): 72.49
AUC (Apoptosis) (OCI-LY19): 706.2
Emax (% Viable Cells) (OCI-LY19): 3.228%
Ymax (Apoptosis) (OCI-LY19): 80.91%
EC50 (NU-DUL-1; Homo sapiens): 63 nM
IC50 (NU-DUL-1; [1]): 35.3 nM
AUC (% Viable Cells) (NU-DUL-1): 22.12
AUC (Apoptosis) (NU-DUL-1): 962.8
Emax (% Viable Cells) (NU-DUL-1): 0.0228%
Ymax (Apoptosis) (NU-DUL-1): 99.84%
AUC (% Viable Cells) (STR428): 43.48
AUC (Apoptosis) (STR428): 905.9
EC50 (STR428): 102 nM
Emax (% Viable Cells) (STR428): 1.227%
Ymax (Apoptosis) (STR428): 95.17%
IC50 (STR428; read-out: IC50 (% Viable Cells)): 94.7 nM
AUC (% Viable Cells) (HT): 396.7
AUC (Apoptosis) (HT): 225.3
Emax (% Viable Cells) (HT): 30.39%
Ymax (Apoptosis) (HT): 25.16%
EC50 (HT; Homo sapiens): 66.2 nM
IC50 (HT; [1]): 319 nM
EC50 (KARPAS-1106P; Homo sapiens): 91.8 nM
IC50 (KARPAS-1106P; [1]): 17.5 nM
AUC (% Viable Cells) (KARPAS-1106P): 22.22
AUC (Apoptosis) (KARPAS-1106P): 885.2
Emax (% Viable Cells) (KARPAS-1106P): 0.1698%
Ymax (Apoptosis) (KARPAS-1106P): 97.08%
EC50 (Pfeiffer; Homo sapiens): 13.6 nM
IC50 (Pfeiffer; [1]): 47.7 nM
AUC (% Viable Cells) (Pfeiffer): 313.5
AUC (Apoptosis) (Pfeiffer): 493.3
Emax (% Viable Cells) (Pfeiffer): 24.49%
Ymax (Apoptosis) (Pfeiffer): 51.82%
